# Laboratory results taken from publication PMC6704710, “Preclinical evaluation of 3D185, a novel potent inhibitor of FGFR1/2/3 and CSF-1R, in FGFR-dependent and macrophage-dominant cancer models” (Journal of Experimental & Clinical Cancer Research : CR, 2019).
# What was measured:
# Experiment in all cases: Eurofins kinase panel
# Type in all cases: biochemical
# Conditions in all cases: read-out: Inhibition rate (%)
# EphA3(h) = molecular target: T1, EphA3(h) (Homo sapiens, UniProt P29320)
# T1 construct: purchased Eurofins (KinaseProfiler)
# T1 sequence (P29320 21-983): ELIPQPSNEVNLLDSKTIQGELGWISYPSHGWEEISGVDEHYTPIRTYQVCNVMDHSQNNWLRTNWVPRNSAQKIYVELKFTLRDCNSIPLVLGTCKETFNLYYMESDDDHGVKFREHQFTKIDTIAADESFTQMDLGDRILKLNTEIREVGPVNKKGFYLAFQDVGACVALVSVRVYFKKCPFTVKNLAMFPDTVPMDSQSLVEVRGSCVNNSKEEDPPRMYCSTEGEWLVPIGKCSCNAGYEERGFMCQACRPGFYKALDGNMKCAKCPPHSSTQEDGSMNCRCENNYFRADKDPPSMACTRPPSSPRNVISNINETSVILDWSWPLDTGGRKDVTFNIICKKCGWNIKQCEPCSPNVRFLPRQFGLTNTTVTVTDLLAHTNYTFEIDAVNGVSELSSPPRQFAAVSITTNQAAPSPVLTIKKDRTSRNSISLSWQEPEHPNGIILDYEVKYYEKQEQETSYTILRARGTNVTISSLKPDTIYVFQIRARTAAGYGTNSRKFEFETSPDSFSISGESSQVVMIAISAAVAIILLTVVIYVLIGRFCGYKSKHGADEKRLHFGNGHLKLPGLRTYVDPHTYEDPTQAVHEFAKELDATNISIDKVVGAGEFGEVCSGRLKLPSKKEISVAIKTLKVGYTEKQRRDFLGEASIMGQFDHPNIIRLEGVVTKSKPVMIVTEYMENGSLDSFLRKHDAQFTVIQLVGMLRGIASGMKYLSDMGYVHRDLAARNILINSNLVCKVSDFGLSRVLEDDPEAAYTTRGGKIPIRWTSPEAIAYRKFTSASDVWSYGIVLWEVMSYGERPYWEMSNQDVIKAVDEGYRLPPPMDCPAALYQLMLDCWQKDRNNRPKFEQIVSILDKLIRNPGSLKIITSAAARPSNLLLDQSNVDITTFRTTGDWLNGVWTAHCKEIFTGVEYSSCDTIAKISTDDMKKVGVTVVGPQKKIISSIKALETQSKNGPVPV
# PKG1α(h) = molecular target: T2, PKG1α(h) (Homo sapiens, UniProt Q13976)
# T2 construct: purchased Eurofins (KinaseProfiler)
# T2 sequence (Q13976 1-671): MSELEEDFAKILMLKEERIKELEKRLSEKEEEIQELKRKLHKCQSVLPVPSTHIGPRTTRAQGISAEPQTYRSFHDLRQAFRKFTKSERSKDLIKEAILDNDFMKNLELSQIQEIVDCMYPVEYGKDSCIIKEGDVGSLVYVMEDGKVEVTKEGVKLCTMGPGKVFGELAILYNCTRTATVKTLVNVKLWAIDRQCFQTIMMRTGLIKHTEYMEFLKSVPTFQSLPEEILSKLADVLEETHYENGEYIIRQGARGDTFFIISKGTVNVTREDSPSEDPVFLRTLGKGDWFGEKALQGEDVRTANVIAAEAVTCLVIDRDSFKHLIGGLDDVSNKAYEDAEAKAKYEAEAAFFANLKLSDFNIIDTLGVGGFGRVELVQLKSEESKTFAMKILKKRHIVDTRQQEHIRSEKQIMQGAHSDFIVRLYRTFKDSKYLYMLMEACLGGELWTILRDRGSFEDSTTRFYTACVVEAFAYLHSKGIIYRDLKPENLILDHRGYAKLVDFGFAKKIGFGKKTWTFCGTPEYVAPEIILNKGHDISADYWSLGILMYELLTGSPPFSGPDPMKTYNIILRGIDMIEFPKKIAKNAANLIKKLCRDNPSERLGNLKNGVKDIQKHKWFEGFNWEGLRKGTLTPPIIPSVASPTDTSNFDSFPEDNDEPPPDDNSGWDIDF
# ULK2(h) = molecular target: T3, ULK2(h) (Homo sapiens, UniProt Q8IYT8)
# T3 construct: purchased Eurofins (KinaseProfiler)
# T3 sequence (Q8IYT8 1-1036): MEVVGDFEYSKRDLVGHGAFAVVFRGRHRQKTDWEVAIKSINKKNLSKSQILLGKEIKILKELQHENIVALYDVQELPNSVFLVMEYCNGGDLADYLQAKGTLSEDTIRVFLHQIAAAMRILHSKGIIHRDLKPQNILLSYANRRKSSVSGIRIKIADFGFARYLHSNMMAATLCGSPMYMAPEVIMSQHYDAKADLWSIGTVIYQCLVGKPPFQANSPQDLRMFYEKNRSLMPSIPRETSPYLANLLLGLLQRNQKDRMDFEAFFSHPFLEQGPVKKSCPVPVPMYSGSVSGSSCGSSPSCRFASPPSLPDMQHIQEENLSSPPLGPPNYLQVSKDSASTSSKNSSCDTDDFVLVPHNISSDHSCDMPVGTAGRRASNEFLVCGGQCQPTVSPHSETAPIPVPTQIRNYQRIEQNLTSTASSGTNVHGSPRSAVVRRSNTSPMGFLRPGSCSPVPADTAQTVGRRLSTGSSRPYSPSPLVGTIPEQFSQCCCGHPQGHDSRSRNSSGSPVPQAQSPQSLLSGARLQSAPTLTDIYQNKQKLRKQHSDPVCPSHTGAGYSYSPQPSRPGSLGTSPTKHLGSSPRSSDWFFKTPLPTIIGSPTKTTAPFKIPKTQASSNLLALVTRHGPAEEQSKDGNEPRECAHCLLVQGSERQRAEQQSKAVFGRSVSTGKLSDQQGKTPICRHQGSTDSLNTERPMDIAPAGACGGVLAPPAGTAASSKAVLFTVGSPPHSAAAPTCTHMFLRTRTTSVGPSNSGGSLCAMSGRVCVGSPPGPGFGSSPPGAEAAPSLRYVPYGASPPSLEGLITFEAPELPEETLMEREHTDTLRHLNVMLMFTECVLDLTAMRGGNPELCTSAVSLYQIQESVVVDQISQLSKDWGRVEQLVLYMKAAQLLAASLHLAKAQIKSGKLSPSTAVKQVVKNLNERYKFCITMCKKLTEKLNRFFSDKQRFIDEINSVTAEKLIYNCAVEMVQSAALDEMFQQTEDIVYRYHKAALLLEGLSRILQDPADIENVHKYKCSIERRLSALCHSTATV
structure (smiles),measurement,setting,value
COc1cc(OC)c(Cl)c(-c2ccc3c(NC(=O)c4ccc(N5CCNC(C)(C)C5)cc4)n[nH]c3n2)c1Cl [3D185],inhibition at 0.01 µM,EphA3(h); 10 nM,2%
same,inhibition at 0.1 µM,EphA3(h); 100 nM,14%
same,inhibition at 1 µM,EphA3(h); 1000 nM,30%
same,inhibition at 0.01 µM,PKG1α(h); 10 nM,-1%
same,inhibition at 0.1 µM,PKG1α(h); 100 nM,-2%
same,inhibition at 1 µM,PKG1α(h); 1000 nM,1%
same,inhibition at 0.01 µM,ULK2(h); 10 nM,4%
same,inhibition at 0.1 µM,ULK2(h); 100 nM,14%
same,inhibition at 1 µM,ULK2(h); 1000 nM,22%
